One series in a line: Animal toxicity. The format is in vivo. To be noted: C57B mice, intraperitoneal, 5, 10 and 20 mg/kg, twice a week for 4 weeks. On the procedure:
The inventors intraperitoneally administered the Mn(III)-salen complexes (in PBS) at three different dozes (5, 10 and 20 mg/kg of mice, 6 weeks old normal C57B mice). The mice were treated twice a week for 4 weeks. After treatment, sign of toxicity were monitored (such as weight loss, mobility), animal behavior and health on a daily basis.

The subject of series [1] is MCF-7 cells. Nature of the series: Cell viability assay (MTT, DIC microscopy) at 20 μM. Type of series: cell-based, human. On the set-up: key to Summary of cell viability activities (active/inactive): Y and N indicates active and inactive compounds respectively; Y and N indicates active and inactive compounds respectively. The note with it: for effect on cell viability (in words): up to 96 hrs; for Summary of cell viability activities (active/inactive): MCF-7 cells, 20 μM, 24-96 hrs, MTT. The procedure:
(A-F): MCF-7 cells were treated with 20 μM metallo-salens and incubated for varying time periods (24-96 hrs). Viable cells were quantified using MTT assay. The percent viable cells (relative to control, treated with equivalent amount of DMSO) were plotted as a function of time for each compound. This experiment was repeated twice with 8 replicate treatments each time. Bars indicates standard errors of mean (SEM). Curves 1-42 in FIGS. 2A-2F, represent the viability curves for compounds 1-42 respectively. (A′-F′) DIC images of the corresponding MCF-7 cells that were treated with DMSO (control panel), or with 20 μM Mn(III)- and Fe(III)-salen complexes for 72 hrs showing the visual effects on cellular morphology and growth/death.
Cell viability assay: Approximately 10,000 MCF-7 cells were seeded into each well of a 96 well micro titer plate and incubated 24 hrs in presence of 150 μL DMEM. An additional 50 μL DMEM containing required amount of each metallo-salen to obtain 20 μM final concentrations (in 200 μL final volume) in 8 replicate wells were added. Control wells were treated with equivalent amount of dimethylsulfoxide (DMSO). The viability of the cells was assayed at 24, 48, 72 and 96 hrs post treatment by using both microscopic observation and MTT assay. For microscopic observation cells were stained with trypan blue for at least 10 minute and observed under Differential Interference Contrast (DIC) setting of a fluorescence microscope (Nikon Eclipse TE2000-U, Japan). The MTT assay was performed as described previously^42. In brief, 20 μL MTT (5 mg/ml in PBS) was added into each wells and incubated for 2 hrs under normal growth condition to allow the viable cell to convert MTT to formazan. Then the media was discarded and formazan crystals were dissolved by adding 100 μL of DMSO and incubating 2 hrs with continuous shaking. The absorbance of the lysates were directly measured at 560 nm using a micro plate reader (Fluostar-omega, BMG Labtech). The absorbance values (which are proportional to the viable cell) are plotted as a function of time. The studies were repeated twice with 8 replicates each time.
The inventors studied the effect of Mn(III)-salen and Fe(III)-salen derivatives on the cell viability of cultured breast cancer cells MCF-7 in order to investigate the biochemical effects of the derivatives. The cells were incubated alone or with 20 μM of each of the metallo-salen derivatives separately (compounds 1-45) for varying time periods (0-96 hrs). The viable cells were quantified using MTT assay and the percent of cell survived (relative to the control untreated cells) were plotted against time (FIGS. 2A-2F).

Series [2] concerns MCF-7 cells. Nature of the series: Cytotoxicity assay (IC50 measurement, MTT). Type of series: cell-based, human. The note with it: MCF-7, 96 hrs. The procedure: Cytotoxicity assay (IC50 measurement): The cytotoxicity of Fe(III)-salen and its derivatives was determined by using MTT assay as described previously^42. In brief, approximately 10,000 MCF-7 cells were seeded into each well of a 96 well micro titer plate and incubated 24 hrs in presence of 150 μL DMEM. An additional 50 μL DMEM containing required amount of each metallo-salen to obtain 0.05 to 60 μM final concentration (in 200 μL final volume) in 8 replicate wells were added. Control wells were treated with equivalent amount of DMSO. After 96 hrs of incubation, 20 μL of MTT (5 mg/mL) was added into each well and cell viability was assayed by measuring the formazan absorption at 560 nm as described above. The absorbance (at 560 nm) values were plotted against concentration of metallo-salens to determine the IC50. The studies were repeated twice with 8 replicates each time.
The concentration of the metal-complexes at which the conversion of MTT to formazan by viable cells is reduced by 50% compared to control cells is defined as the IC50. The percent of cell survival relative to the control cells were plotted as a function of concentration of the metallo-salen derivatives.

Series [3] deals with colon cancer xenograft (CCL228 cells). Nature of the series: Colon cancer xenograft experiment. To be noted: Athymic nude nu/nu mice, intraperitoneal, 10 mg/kg, twice a week. Type of series: in vivo. On the procedure: Athymic nude nu/nu mice carrying the colon cancer xenograft were administered with 10 mg/kg of 3,3′-dimethoxy Mn(III)-salen (compound 6), 3,3′-dihydroxy Mn(III)-salphen (compound 9) and 3,3′-dihydroxy Mn(III)-salnaphen (compound 16) at 4 days interval, for over a period of 21 days. Tumor diameters were measured using a slide caliper prior to each administration and plotted (left panel). Bar indicated standard deviation (3 replicate experiments).
All the animal experiments were carried out using the IACUC approved protocol. For examining the efficacies of metallo-salen complexes, the inventors administered selected metallo-salen complexes in PBS intraperitoneally on Athymic nude nu/nu mice (Harlan) carrying the colon cancer xenografts. In brief, 2×10^6 human colon cancer cells (CCL228 cell in 100 μl of PBS) were injected subcutaneously (near the right back limb). Animals were examined daily for signs of tumor growth and behavior. Once the tumor size reached ˜25 mm^2 (2 to 3 weeks after injection of cells) the inventors administered the metallo-salen complexes intraperitoneally (in PBS solution, twice in a week, in three parallel replicates). Control mice were injected with equal volume of the diluents (PBS) alone. Prior to every new treatment with metallo-salen complexes, bi-dimensional measurements were carried out using calipers and cross-sectional area (tumor size) and data were plotted (FIG. 8A).
Xenograft experiment: To test the efficacy in controlling the tumor growth, the inventors administered compound compounds, 6, 9 and 16, intraperitoneally to six week old Athymic nude nu/nu mice carrying the colon cancer xenograft. In brief, 2×10^6 human colon cancer cells (CCL228 cell in 100 μl of PBS) were injected subcutaneously (near the right back limb). Animals were examined daily for signs of tumor growth and behavior. Once the tumor size reached ˜25 mm^2 (2 to 3 weeks after injection of cells) the inventors administered compounds 6, 9, and 16 intraperitoneally (separately in PBS solution, twice a week, 10 mg/kg dose). Every study was performed in three parallel replicates. […]

[4] abbreviates: read-out: IC50 values for different complexes in MCF-7 cells.
[5] abbreviates: read-out: IC50 toward MCF-7 cells.

Several values for one entry are separate records, joined by “and”; a condition that tells them apart may be missing. Identical values can stand only once. Like-named read-outs stand apart in the source and are kept apart here.

A word on the IC50: it is the concentration needed to halve the response being measured. In the case of `CC(=O)[O-].COc1ccc(C=NCCN=Cc2ccc(OC)cc2[O-])c([O-])c1.[Mn+3]` [compound 6, 4,4′-Dimethoxysalen Mn(III) acetate], in the series “Animal toxicity”, the animal toxicity result was “did not have any significant animal toxicity”; the “survival and body weight” value is “survived without significant loss of body weight”. Besides, the “effect on cell viability (in words)” value in the series with MCF-7 cells [1] (MCF-7, 20 μM) is listed as “induced efficient cell death”. Further, the “Summary of cell viability activities (active/inactive)” value (“Summary … (active/inactive)” for short) in the series with MCF-7 cells [1] is “Y (6)”. Further, in the series on MCF-7 cells [2] (setting [4]), the IC50 worked out at 12.3 µM. In series [3], the “tumor growth in colon cancer xenograft” value is “complete arrest of tumor growth”.

As for `CC(=O)[O-].[Mn+3].[O-]c1c(O)cccc1C=Nc1ccccc1N=Cc1cccc(O)c1[O-]` [compound 9, 3,3′-Dihydroxysalphen Mn(III) acetate], in the series “Animal toxicity”, the animal toxicity result is listed as “did not have any significant animal toxicity”; the “survival and body weight” value is on record as “survived without significant loss of body weight”. In the series on MCF-7 cells [1], the “Summary … (active/inactive)” value was “Y (9)”. For the same compound, the IC50 with MCF-7 cells [2] (setting [4]) worked out at 17.3 µM. Moreover, the “tumor growth in colon cancer xenograft” value in series [3] is recorded as “complete arrest of tumor growth”.

With `CC(=O)[O-].[Mn+3].[O-]c1cc(O)ccc1C=Nc1cc2ccccc2cc1N=Cc1ccc(O)cc1[O-]` [compound 17, 4,4′-Dihydroxysalnaphen Mn(III) acetate], the “effect on cell viability (in words)” value with MCF-7 cells [1] (MCF-7, 20 μM) is “effective in inducing cell death”. In the series with MCF-7 cells [1], the “Summary … (active/inactive)” value is “Y (17)”. Further, the IC50 in the series on MCF-7 cells [2] (setting [4]) amounted to 21.4 µM.

On to `CC(=O)[O-].COc1cccc(C=Nc2cc3ccccc3cc2N=Cc2cccc(OC)c2[O-])c1[O-].[Mn+3]` [compound 19, 3,3′-Dimethoxysalnaphen Mn(III) acetate], for which, in the series with MCF-7 cells [1], the “Summary … (active/inactive)” value is listed as “Y (19)”. Besides, the IC50 in the series with MCF-7 cells [2] (setting [4]) stood at 39.7 µM.

In the case of `CC(=O)[O-].COc1ccc(C=Nc2cc3ccccc3cc2N=Cc2ccc(OC)cc2[O-])c([O-])c1.[Mn+3]` [compound 20, 4,4′-Dimethoxysalnaphen Mn(III) acetate], the “Summary … (active/inactive)” value with MCF-7 cells [1] was “Y (20)”. The IC50 in the series with MCF-7 cells [2] (setting [4]) is 20.4 µM and 20.5 µM.

With `CC(=O)[O-].COc1ccc([O-])c(C=Nc2cc3ccccc3cc2N=Cc2cc(OC)ccc2[O-])c1.[Mn+3]` [compound 21, 5,5′-Dimethoxysalnaphen Mn(III) acetate], in the series on MCF-7 cells [1], the “Summary … (active/inactive)” value was “Y (21)”. For the same compound, the IC50 with MCF-7 cells [2] (setting [4]) was determined as 19.3 µM.

In the case of `[Cl-].[Fe+3].[O-]c1ccccc1C=NCCN=Cc1ccccc1[O-]` [compound 22, Fe(III)-salen chloride], the “effect on cell viability (in words)” value in the series on MCF-7 cells [1] (MCF-7, 20 μM) is recorded as “highly effective in killing MCF-7 cells”. The “Summary … (active/inactive)” value with MCF-7 cells [1] is on record as “Y (22)”. For the same compound, the IC50 with MCF-7 cells [2] (setting [4]) stood at 22.4 µM.

As to `COc1ccc([O-])c(C=NCCN=Cc2cc(OC)ccc2[O-])c1.[Cl-].[Fe+3]` [compound 28, 5,5′-Dimethoxysalen Fe(III) chloride], the “cells killed in less than 24 hrs” value with MCF-7 cells [1] (MCF-7, 20 μM, less than 24 hrs) is listed as “more than 80%”. The “effect on cell viability (in words)” value in the series with MCF-7 cells [1] (MCF-7, 20 μM) is given as “highly effective in killing MCF-7 cells”. The “Summary … (active/inactive)” value in the series with MCF-7 cells [1] is “Y (28)”. Moreover, the IC50 with MCF-7 cells [2] (setting [4]) is 4.56 µM.

For the compound `[Cl-].[Fe+3].[O-]c1ccccc1C=Nc1ccccc1N=Cc1ccccc1[O-]` [compound 29, Fe(III)-salphen.chloride], the “Summary … (active/inactive)” value with MCF-7 cells [1] is given as “Y (29)”. The IC50 in the series on MCF-7 cells [2] (setting [4]) is 1.25 µM.

Turning to `[Cl-].[Fe+3].[O-]c1c(O)cccc1C=Nc1ccccc1N=Cc1cccc(O)c1[O-]` [compound 30, 3,3′-Dihydroxysalphen Fe(III) chloride], the “Summary … (active/inactive)” value in the series with MCF-7 cells [1] was “Y (30)”. Besides, the IC50 with MCF-7 cells [2] (setting [5]) turned out to be 0.33 µM.

For `COc1cccc(C=Nc2ccccc2N=Cc2cccc(OC)c2[O-])c1[O-].[Cl-].[Fe+3]` [compound 33, 3,3′-Dimethoxysalphen Fe(III) chloride], the “Summary … (active/inactive)” value with MCF-7 cells [1] was “Y (33)”. Also, the IC50 with MCF-7 cells [2] (setting [4]) amounted to 4.15 µM.

As for `COc1ccc(C=Nc2ccccc2N=Cc2ccc(OC)cc2[O-])c([O-])c1.[Cl-].[Fe+3]` [compound 34, 4,4′-Dimethoxysalphen Fe(III) chloride], in the series on MCF-7 cells [1], the “Summary … (active/inactive)” value was “Y (34)”. Moreover, the IC50 in the series on MCF-7 cells [2] (setting [5]) was found to be 0.68 µM.

For the compound `COc1ccc([O-])c(C=Nc2ccccc2N=Cc2cc(OC)ccc2[O-])c1.[Cl-].[Fe+3]` [compound 35, 5,5′-Dimethoxysalphen Fe(III) chloride], the “Summary … (active/inactive)” value in the series with MCF-7 cells [1] is “Y (35)”. The 50% inhibitory concentration (IC50) with MCF-7 cells [2] (setting [4]) came to 3.11 µM.

As for `[Cl-].[Fe+3].[O-]c1ccccc1C=Nc1cc2ccccc2cc1N=Cc1ccccc1[O-]` [compound 36, Fe(III)-salnaphen chloride], in the series with MCF-7 cells [1], the “Summary … (active/inactive)” value is recorded as “Y (36)”. For the same compound, in the series on MCF-7 cells [2] (setting [5]), the IC50 was found to be 0.54 µM.

In the case of `[Cl-].[Fe+3].[O-]c1c(O)cccc1C=Nc1cc2ccccc2cc1N=Cc1cccc(O)c1[O-]` [compound 37, 3,3′-Dihydroxysalnaphen Fe(III) chloride], the “Summary … (active/inactive)” value in the series on MCF-7 cells [1] is “Y (37)”. In addition, the IC50 in the series with MCF-7 cells [2] (setting [5]) is 0.22 µM.

Take `COc1cccc(C=Nc2cc3ccccc3cc2N=Cc2cccc(OC)c2[O-])c1[O-].[Cl-].[Fe+3]` [compound 40, 3,3′-Dimethoxysalnaphen Fe(III) chloride]: in the series on MCF-7 cells [1], the “Summary … (active/inactive)” value is “Y (40”. Also, the IC50 in the series on MCF-7 cells [2] (setting [4]) was 1.5 µM.

Turning to `COc1ccc(C=Nc2cc3ccccc3cc2N=Cc2ccc(OC)cc2[O-])c([O-])c1.[Cl-].[Fe+3]` [compound 41, 4,4′-Dimethoxysalnaphen Fe(III) chloride], in the series with MCF-7 cells [1], the “Summary … (active/inactive)” value is given as “Y (41)”. Also, in the series with MCF-7 cells [2] (setting [5]), the IC50 came out at 0.53 µM.

(Values after patent publication US8198322B2, “Apoptotic and anti-tumor activities of metallo-salens” (Board of Regents, The University of Texas System, priority 2008, dated 2012).)
